According to article PMC6832524, “A Nature-Inspired Design Yields a New Class of Steroids Against Trypanosomatids” (Molecules, 2019):
Read-outs that look alike come from different tables or passages of the source.

What was measured:
[1] = tested on: T. cruzi epimastigotes, Tulahuen 2 strain (genotype TcVI); experiment: in vitro anti-T. cruzi activity, epimastigote growth (absorbance 600 nm); type: cell-based, Trypanosoma cruzi
Procedure: Control parasites were cultivated in 0.4% DMSO. Each concentration of the compound was evaluated in duplicate.

[2] = tested on: L. infantum (MHOM/BR/2002/LPC-RPV) promastigotes; experiment: in vitro anti-Leishmania activity, promastigotes, resazurin; type: cell-based, Leishmania infantum
[3] = tested on: promastigotes L. braziliensis/ L. amazonensis; experiment: in vitro anti-Leishmania activity, promastigotes (Table 1S); type: cell-based; conditions: read-out: IC50 ± %SD (µM) promastigotes L. braziliensis/ L. amazonensis
[4] = tested on: L. infantum .uy (parasites isolated from two dogs in the first Leishmaniasis outbreak in Uruguay); experiment: in vitro activity against L. infantum isolated from dogs in Uruguay; type: cell-based, Leishmania infantum; conditions: read-out: IC50± %SD (µM) promastigotes L. infantum uy*p/c
[5] = tested on: L. infantum .uy (parasites isolated from two dogs in the first Leishmaniasis outbreak in Uruguay); experiment: as above; type: cell-based, Leishmania infantum; conditions: for IC50: Leishmania infantum, read-out: IC50 ± %SD (µM) L. infantum .uy
Procedure: Compounds were dissolved in dimethylsulfoxide (DMSO).
For assessing the amastigote form of all Leishmania strains were cultured in the RPMI described above. Parasites were seeded at 1 × 10^6 cells/mL and at each time point counted at least five times to obtain a growth curve. […] Control conditions of parasites without drug (100% growth) and medium without parasites were included. After 72 h at 28 °C parasite viability was determined by the resazurin method described. Infection with L. infantum. THP-1 monocytes (ATCC®TIB-202™) were grown following ATCC recommendations and seeded at 30,000 cells/well onto 18-mm round glass coverslips in 12 wells. For stimulation cells were incubated with 100 nM of PMA for 48 h, PMA was washed and cells left with growth media for 24 h more after incubation with parasites. 30,000 parasites/well were added and left to interact. After 48 h, coverslips were washed with PBS, fixed with 95% (v/v) ethanol, and stained with Fluoroshield™ with DAPI (Sigma). Infectivity was assessed considering invasion and replication capacity counting infected cells and parasites per infected cell, respectively. Infectivity index calculation = (% of infected cells X (amastigotes per cell))/number of total counted cells. Image acquisition was made with a Leica TCS-SP5 laser scanning confocal microscope (Leica Microsystems GmbH, Wetzlar, Germany) using the LASAF v.2 software (Leica Microsystems, Wetzlar, Germany) and observed using a 356 nm laser excitation line and an emission bandwidth from 461 nm under a 20× water immersion objective. Further image analysis, including quantitation and processing of figures were made using Fiji (http://fiji.sc/).

[6] = tested on: J774.1 murine macrophages; experiment: nonspecific cytotoxicity on mammalian cells, MTT; type: cell-based; conditions: for IC50: Mus musculus, J774.1, 48 h, MTT, read-out: IC50 ± SD (µM) Murine Macrophages; for SI J774.1/T. cruzi: ratio IC50 murine macrophages / IC50 T. cruzi epimastigotes; for SI J774.1/L. amazonensis: ratio IC50 murine macrophages / IC50 L. amazonensis promastigotes
solubility (qualitative) = type: physicochemical; conditions: for solubility in the conditions of the mammalian cell assay, in words: maximum dose tested 25 µM
[7] = tested on: L. amazonensis (promastigotes); experiment: in vitro anti-Leishmania activity, promastigotes, resazurin; type: cell-based; conditions: maximum dose tested 25 µM, read-out: IC50 ± %SD (µM) L. amazonensis
[8] = tested on: T. cruzi blood trypomastigotes of the Y strain; experiment: in vivo anti-T. cruzi study (acute Chagas model); design: species or system Trypanosoma cruzi; conditions: BALB/c mice, 50 mg/kg/day oral for 14 days; for Number of Parasites (Chagas): peak of parasitemia; for % of Reduction (Chagas): reduction of parasitemia vs control
[9] = tested on: L. infantum amastigotes in human macrophages (THP-1); experiment: human macrophages infected with L. infantum (amastigotes), infectivity index; type: cell-based; conditions: Leishmania infantum, two strains of L. infantum (reference strain and isolated from dogs)
[10] = tested on: primary culture of macrophages from mice bone marrow; experiment: cytotoxicity on primary culture of macrophages, MTT; type: cell-based; conditions: 25 µM, 48 h, compared with J774.1
[11] = tested on: L. amazonensis (IFLA/BR/1967/PH8); experiment: in vivo anti-Leishmania study in cutaneous mice model; design: species or system Leishmania amazonensis; conditions: BALB/c mice, 50 mg/kg oral
[12] = liver fraction stability study (TLC); type: in vitro ADME; conditions: rat liver fractions, 400 µM, 37 °C, 4 h
[13] = in vivo acute oral toxicity (OECD up and down); conditions: male, B6D2F1, mouse, 2000 mg/kg
Procedure: Briefly, healthy young adult male B6D2F1 mice (30 days old, 25 to 30 g) were used in this study. Initially, the compound was dissolved in the vehicle described above (3.4 section) and was administered at 2000 mg/kg, by orogastric cannula, to one animal. The animal was fasted, maintained, and observed for 48 h. If the mouse survives, another animal receives the same dose, and 48 h later, a third animal. If there are no toxicity signs the experiment is finished 14 days after administration, with the euthanasia of the animals according to the OECD guidelines. Observations of the general status of the organs were performed after sacrifice.

[14] = tested on: L. infantum, L. braziliensis, L. amazonensis promastigotes and T. cruzi epimastigotes; experiment: phenotypic screening against parasites in vitro (overall statements)
Procedure: For the in vitro anti-T. cruzi activity, we used epimastigotes of the Tulahuen 2 strain (genotype TcVI) grown in an axenic milieu (BHI-Tryptose). Cells from a 5–7-days-old culture were inoculated in fresh culture milieu to give an initial concentration of 10^6 cells/mL. The absorbance at 600 nm of the cells in culture was measured every day. […] Control parasites were cultivated in 0.4% DMSO. Each concentration of the compound was evaluated in duplicate. At five days, the absorbance of the culture was measured and compared to the control and the IC50 values calculated for each compound using OriginLab8.5® sigmoidal regression.

[15] = Table 1S, read-out: IC50 ± %SD (µM) epimastigotes T. cruzi
[16] = Table 1S, read-out: IC50 ± %SD (µM) promastigotes L. infantum
[17] = Table 1S, one value printed for p/c
[18] = Trypanosoma cruzi, TULAHUEN, Table 1S, read-out: IC50 ± %SD (µM) epimastigotes T. cruzi
[19] = Trypanosoma cruzi, TULAHUEN, epimastigotes, maximum dose tested 25 µM, read-out: IC50 ± %SD (µM) T. cruzi
[20] = Leishmania infantum, promastigotes, maximum dose tested 25 µM, read-out: IC50 ± %SD (µM) L. infantum

Compound | IC50 [3] | IC50 [1, 19] | activity against Leishmania infantum from Fiocruz collection, in words [2] | IC50 [2, 20] | active against the strains isolated from Uruguayan dogs, in words [5] | IC50 [5] | IC50 [6] | SI J774.1/T. cruzi [6] | melting point | IC50 [7] | also measured
CSc1ccc(/C=C/C(=O)[C@H]2CCC3C4CC=C5C[C@@H](O)CC[C@]5(C)C4CC[C@@]32C)cc1 (stereo partly drawn) [Compound 15] | > 25 µM |  |  |  |  |  |  |  |  |  | IC50 [1, 15]: > 25 µM; IC50 [2, 16]: > 25 µM; IC50 [4, 17]: > 25 µM
C=CCNC(=S)N/N=C(\C)[C@H]1CC[C@H]2[C@@H]3CC=C4CC(O)CC[C@]4(C)[C@H]3CC[C@]12C (stereo partly drawn) [Compound 9, 1-(3β-Hydroxy-pregn-5-ene-20E-ylidene)-4-Allylthiosemicarbazone] |  | 8 ± 2 µM | active | > 25 µM | not | > 25 µM | 25 ± 2 µM | 3 | 229 to 233 °C |  | IC50 [1, 18]: 7.8 µM; solubility in the conditions of the mammalian cell assay, in words (solubility (qualitative)): poorly soluble
C[C@]12CC[C@H]3[C@@H](CC=C4CC(O)CC[C@@]43C)[C@@H]1CC[C@@H]2C(=O)/C=C/c1ccccc1Cl (stereo partly drawn) [Compound 2] | 23 ± 5 µM | 12 ± 3 µM | active | > 25 µM | not | > 25 µM | 100 ± 10 µM | 8 | 149 to 151 °C | 23 ± 5 µM | SI J774.1/L. amazonensis [6]: 4
O=C(Cn1ccnc1[N+](=O)[O-])NCc1ccccc1 [Benznidazole, reference compound] |  |  |  |  |  |  | 400 ± 4 µM | 57 |  |  | % of Survivals (Chagas) [8]: 100%; Number of Parasites (Chagas) [8]: (0.01 ± 0.01) × 10^6 per mL blood; % of Reduction (Chagas) [8]: 96%
CC(/C=C/C(=O)[C@H]1CC[C@H]2[C@@H]3CC=C4CC(O)CC[C@]4(C)[C@H]3CC[C@]12C)=C\c1ccco1 (stereo partly drawn) [Compound 16, (2E,4E)-5-(furan-2-yl)-1-((8S,9S,10R,13S,14S,17S)-3-hydroxy-10,13-dimethyl-2,3,4,7,8,9,10,11,12,13,14,15,16,17-tetradecahydro-1H-cyclopenta[a]phenanthren-17-yl)-4-methylpenta-2,4-dien-1-one] | 23 ± 3 µM |  |  |  |  |  |  |  | 110 to 113 °C |  | IC50 [1, 18]: > 25 µM; IC50 ([2]; Leishmania infantum, Table 1S, read-out: IC50 ± %SD (µM) promastigotes L. infantum): > 25 µM; IC50 ([4]; Leishmania infantum): > 25 µM
C[C@]12CC[C@H]3[C@@H](CC=C4CC(O)CC[C@@]43C)[C@@H]1CC[C@@H]2C(=O)/C=C/C=C/c1cccs1 (stereo partly drawn) [Compound 17, (2E,4E)-5-(thiofen-2-yl)-1-((8S,9S,10R,13S,14S,17S)-3-hydroxy-10,13-dimethyl-2,3,4,7,8,9,10,11,12,13,14,15,16,17-tetradecahydro-1H-cyclopenta[a]phenanthren-17-yl)penta-2,4-dien-1-one] | > 25 µM |  |  |  |  |  |  |  |  |  | IC50 [1, 15]: > 25 µM; IC50 [2, 16]: > 25 µM; IC50 [4, 17]: > 25 µM
C/C(=N\NC(=S)Nc1ccccc1)[C@H]1CC[C@H]2[C@@H]3CC=C4CC(O)CC[C@]4(C)[C@H]3CC[C@]12C (stereo partly drawn) [Compound 10, 1-(3β-Hydroxy-pregn-5-ene-20E-ylidene)-4-phenylthiosemicarbazone] |  | 25 ± 3 µM |  | > 25 µM |  | > 25 µM | 25 ± 5 µM | 1 | 215 to 217 °C |  | solubility in the conditions of the mammalian cell assay, in words (solubility (qualitative)): poorly soluble
C/C(=N\NC(N)=S)[C@H]1CC[C@H]2[C@@H]3CC=C4CC(O)CC[C@]4(C)[C@H]3CC[C@]12C (stereo partly drawn) [Compound 8, 1-(3β-Hydroxy-pregn-5-ene-20E-ylidene)thiosemicarbazone] | < 22 µM | 1.2 ± 0.3 µM |  | 0.2 ± 0.1 µM |  | 0.2 ± 0.1 µM | 50 ± 3 µM | 42 |  | < 22 µM | IC50 [9]: < 0.2 µM; SI J774.1/L. amazonensis [6]: >2; SI J774.1/L. infantum ([6]; ratio IC50 murine macrophages / IC50 L. infantum promastigotes): 250; cytotoxicity on primary culture of macrophages, in words [10]: the same results were obtained; % of Survivals (Chagas) [8]: 100%; Number of Parasites (Chagas) [8]: (0.14 ± 0.03) × 10^6 per mL blood; % of Reduction (Chagas) [8]: 62%; % of Reduction (Leishmaniasis) [11]: 27%; % of Survivals (Leishmaniasis) [11]: 100%; Number of Parasites (Leishmaniasis) ([11]; parasites in the lesion at the end of the experiment): (21 ± 4) × 10^6; metabolic stability in cytosolic and microsomal liver fraction [12]: stable; solubility in water, in words (solubility (qualitative)): poor solubility in water; LD50 at 14 days [13]: > 2000 mg/kg; IC50 ([14]; Trypanosoma cruzi, read-out: IC50 in vitro (abstract)): 0.2 µM; times more active than Miltefosine in vitro ([14]; against Leishmania): five times more active; times more active than Nfx and Bnz in vitro ([14]; against T. cruzi): 35; antiparasitic activity (active: IC50<25 µM), in words ([14]; all parasites/strains tested, maximum dose 25 µM): consistently active against all strains
C[C@]12CC[C@H]3[C@@H](CC=C4CC(O)CC[C@@]43C)[C@@H]1CC[C@@H]2C(=O)/C=C/c1cccc(Br)c1 (stereo partly drawn) [Compound 4] | > 25 µM | 20 ± 5 µM | active | > 25 µM | not | > 25 µM |  |  | 159 to 161 °C | > 25 µM | 
